Assay: mn = molality of the nth substance listed, in mol/kg
Conditions: 85 kPa, Liquid; for viscosity: Capillary tube (Ostwald / Ubbelohde) method; for speed of sound: Frequency=3 MHz, Single path-length method; for mass density: Vibrating tube method

C[N+](C)(C)CCO.O=C([O-])[C@@H]1CCCN1 [2-hydroxy-N,N,N-trimethylethanaminium L-prolinate] + O
Conditions	mass density [kg/m3]	speed of sound [m/s]	viscosity [mPa·s]
288.15 K, m1 = 0.0136	999.51	1468.7	1.325
288.15 K, m1 = 0.0217	999.76	1469.9	1.337
288.15 K, m1 = 0.0329	1000.09	1471.5	1.351
288.15 K, m1 = 0.044	1000.42	1473.1	1.364
288.15 K, m1 = 0.0525	1000.67	1474.2	1.375
288.15 K, m1 = 0.0626	1000.96	1475.6	1.388
298.15 K, m1 = 0.0136	997.47	1499	1.059
298.15 K, m1 = 0.0217	997.71	1500.2	1.067
298.15 K, m1 = 0.0329	998.05	1501.8	1.077
298.15 K, m1 = 0.044	998.38	1503.4	1.089
298.15 K, m1 = 0.0525	998.63	1504.5	1.096
298.15 K, m1 = 0.0626	998.92	1505.9	1.104
308.15 K, m1 = 0.0136	994.45	1522.1	0.879
308.15 K, m1 = 0.0217	994.7	1523.3	0.884
308.15 K, m1 = 0.0329	995.04	1524.8	0.894
308.15 K, m1 = 0.044	995.37	1526.4	0.902
308.15 K, m1 = 0.0525	995.63	1527.5	0.908
308.15 K, m1 = 0.0626	995.92	1528.9	0.916
318.15 K, m1 = 0.0136	990.64	1538	0.74
318.15 K, m1 = 0.0217	990.9	1539.1	0.746
318.15 K, m1 = 0.0329	991.24	1540.7	0.753
318.15 K, m1 = 0.044	991.58	1542.2	0.76
318.15 K, m1 = 0.0525	991.84	1543.3	0.764
318.15 K, m1 = 0.0626	992.13	1544.6	0.772

C[N+](C)(C)CCO.NCC(=O)[O-] [2-hydroxy-N,N,N-trimethylethanaminium glycinate] + O
Conditions	mass density [kg/m3]	speed of sound [m/s]	viscosity [mPa·s]
288.15 K, m1 = 0.0111	999.43	1468.1	1.251
288.15 K, m1 = 0.0214	999.73	1469.5	1.263
288.15 K, m1 = 0.0318	1000.03	1470.8	1.275
288.15 K, m1 = 0.0417	1000.3	1472.1	1.288
288.15 K, m1 = 0.0534	1000.63	1473.6	1.302
288.15 K, m1 = 0.0619	1000.85	1474.7	1.313
298.15 K, m1 = 0.0111	997.68	1498.2	1
298.15 K, m1 = 0.0214	997.97	1499.4	1.011
298.15 K, m1 = 0.0318	998.25	1500.6	1.02
298.15 K, m1 = 0.0417	998.57	1501.7	1.03
298.15 K, m1 = 0.0534	998.8	1503	1.042
298.15 K, m1 = 0.0619	997.38	1504	1.049
308.15 K, m1 = 0.0111	994.36	1521.1	0.832
308.15 K, m1 = 0.0214	994.66	1522.2	0.841
308.15 K, m1 = 0.0318	994.96	1523.2	0.851
308.15 K, m1 = 0.0417	995.24	1524.1	0.858
308.15 K, m1 = 0.0534	995.56	1525.2	0.869
308.15 K, m1 = 0.0619	995.79	1526	0.877
318.15 K, m1 = 0.0111	990.55	1536.9	0.706
318.15 K, m1 = 0.0214	990.85	1537.7	0.714
318.15 K, m1 = 0.0318	991.15	1538.6	0.722
318.15 K, m1 = 0.0417	991.43	1539.4	0.729
318.15 K, m1 = 0.0534	991.75	1540.5	0.737
318.15 K, m1 = 0.0619	991.99	1541.2	0.741

From the NIST ThermoML archive (doi:10.1021/acs.jced.8b00879)
